Test results taken from PMC10938262 (Science translational medicine, 2023).

Molecular target: T1, human estrogen receptor α (ERα) (Homo sapiens, UniProt P03372)
T1 sequence (P03372 302-552 limits assumed): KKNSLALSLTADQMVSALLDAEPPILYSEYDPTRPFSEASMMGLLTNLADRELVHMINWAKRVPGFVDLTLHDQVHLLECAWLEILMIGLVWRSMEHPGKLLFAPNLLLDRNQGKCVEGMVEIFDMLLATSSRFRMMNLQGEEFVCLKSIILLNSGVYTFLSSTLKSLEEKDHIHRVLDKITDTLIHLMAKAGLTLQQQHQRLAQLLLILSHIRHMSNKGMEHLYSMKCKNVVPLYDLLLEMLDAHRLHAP
Format: binding

Ki: 0.3 ± 0.1 nM
Compound: C[C@]12CC[C@@H]3c4ccc(O)cc4CC[C@H]3[C@@H]1C[C@@H](F)[C@@H]2O [FES, 16α-fluoroestradiol]
